According to the OligoGym collection:
Where “and” joins values, the source holds several entries; their conditions need not be identical. Identical values can stand only once. After the bases stand the sugars from the 5' end (letter, count) and the backbone: PS all phosphorothioate, else s phosphorothioate and o phosphodiester by linkage. Methylation of C is not given here. e = 2'-O-(2-methoxyethyl) (MOE); k = constrained ethyl (cEt); d = 2'-deoxy (DNA)

Molecular target: KRAS
Details: ASO

Sequence | target mRNA inhibition (A431, 2 µM) | also measured
ATGCTAATAATTTAGT (sugars k3 d10 k3, PS) | 11% | –
ATGCTGTGAAACTCTC (sugars k3 d10 k3, PS) | 58% and 52% and 39% | target mRNA inhibition (A431, 0.185 µM): 26%; target mRNA inhibition (A431, 0.556 µM): 42%; target mRNA inhibition (A431, 1.667 µM): 47%; target mRNA inhibition (A431, 5 µM): 72%
ATGCTGTGAAACTCTC (sugars kkdddddddddkekek, PS) | 16% | –
ATGGTGAATATCTTCA (sugars k3 d10 k3, PS) | 64% | target mRNA inhibition (A431, 1.667 µM): 45% and 31%; target mRNA inhibition (A431, 5 µM): 70% and 65%
ATGGTGTAACATAGGT (sugars k3 d10 k3, PS) | 59% and 47% and 52% | target mRNA inhibition (A431, 0.185 µM): 17%; target mRNA inhibition (A431, 0.556 µM): 36%; target mRNA inhibition (A431, 1.667 µM): 59%; target mRNA inhibition (A431, 5 µM): 75%
ATGGTGTAACATAGGT (sugars kddddddddddkekek, PS) | 47% | –
ATGGTGTAACATAGGT (sugars kkddddddddkekekk, PS) | 40% | –
ATGGTGTAACATAGGT (sugars kkkddddddddkekek, PS) | 43% | –
ATGTAGGGCATTTCTG (sugars k3 d10 k3, PS) | 9% | –
ATTAGGAGTCTTTATA (sugars k3 d10 k3, PS) | 20% | –
ATTAGTCTCCATTAGT (sugars k3 d10 k3, PS) | 29% | –
ATTCAAAGTTCACATA (sugars k3 d10 k3, PS) | 0% | –
ATTGTGCAATGGTGAC (sugars k3 d10 k3, PS) | 57% | –
CAACTGCATGCACCAA (sugars k3 d10 k3, PS) | 31% | –
CACTTGTACTAGTATG (sugars k3 d10 k3, PS) | 36% | –
CAGATTGTGCTGAGCT (sugars k3 d10 k3, PS) | 29% | –
CAGTGTGACTCAGTTA (sugars kddddddddddkekek, PS) | 32% | –
CAGTGTGACTCAGTTA (sugars kdddddddddkekeke, PS) | 54% | –
CAGTGTGACTCAGTTA (sugars kkdddddddddkekek, PS) | 56% | –
CAGTGTGACTCAGTTA (sugars kkkdddddddddkeke, PS) | 55% | –
CAGTGTGACTCAGTTA (sugars kkkddddddddkdkdk, PS) | 60% and 50% | target mRNA inhibition (A431, 0.185 µM): 10%; target mRNA inhibition (A431, 0.556 µM): 24%; target mRNA inhibition (A431, 1.667 µM): 45%; target mRNA inhibition (A431, 5 µM): 66%
CAGTGTGACTCAGTTA (sugars kkkddddddddkekek, PS) | 63% | target mRNA inhibition (A431, 0.185 µM): 28%; target mRNA inhibition (A431, 0.556 µM): 24%; target mRNA inhibition (A431, 1.667 µM): 46%; target mRNA inhibition (A431, 5 µM): 71%
CAGTGTTAAGAGAACT (sugars kddddddddddkekek, PS) | 23% | –

Sequence | target mRNA inhibition (A431, 2 µM) | also measured
CATTACTTTTTGACAA (sugars k3 d10 k3, PS) | 8% | –
CATTCAAAGTTCACAT (sugars k3 d10 k3, PS) | 2% | –
CATTCAAAGTTCACAT (sugars kddddddddddkekek, PS) | 43% | –
CATTTATGTGACTAGA (sugars kdddddddddkekeke, PS) | 24% | –
CCAGTGATACTTTCAC (sugars k3 d10 k3, PS) | 15% | –
CCAGTGATACTTTCAC (sugars kdddddddddkekeke, PS) | 16% | –
CCAGTGTTAAGAGAAC (sugars k3 d9 k3 e1, PS) | 55% | –
CCAGTGTTAAGAGAAC (sugars k3 d10 k3, PS) | 33% | –
CCAGTGTTAAGAGAAC (sugars kkdddddddddkdkdk, PS) | 38% | –
CCAGTGTTAAGAGAAC (sugars kkdddddddddkekek, PS) | 43% | –
CCATTCAAAGTTCACA (sugars kkddddddddddkeke, PS) | 63% | target mRNA inhibition (A431, 0.185 µM): 19%; target mRNA inhibition (A431, 0.556 µM): 32%; target mRNA inhibition (A431, 1.667 µM): 50%; target mRNA inhibition (A431, 5 µM): 67%; target mRNA inhibition (NCI-H460, 0.037 µM): 54.7%
CCATTCAAAGTTCACA (sugars kkdddddddddkekek, PS) | 36% | –
CCATTTATGTGACTAG (sugars kkdddddddddkdkdk, PS) | 43% | –
CCATTTATGTGACTAG (sugars kkdddddddddkekek, PS) | 25% | –
CGAGAATGGATATTCA (sugars k3 d10 k3, PS) | 14% | –
CTAAAACAAATGCTAA (sugars k3 d10 k3, PS) | 15% | –
CTGTAGTTTCACATAG (sugars k3 d10 k3, PS) | 25% | –
CTGTCTATTCATACCA (sugars k3 d10 k3, PS) | 34% | –
CTGTGAAACTCTCTAT (sugars k3 d10 k3, PS) | 29% | –
CTTACAAATCTGAATT (sugars k3 d10 k3, PS) | 7% | –
CTTCATTGTTTAAAAA (sugars k3 d10 k3, PS) | 11% | –
CTTGATTTGTCAGCAG (sugars k3 d9 k3 e1, PS) | 46% | –
CTTGATTTGTCAGCAG (sugars kkkddddddddkekek, PS) | 41% | –

Sequence | target mRNA inhibition (A431, 2 µM) | also measured
CTTGTACTAGTATGCC (sugars k3 d10 k3, PS) | 59% | target mRNA inhibition (A431, 0.185 µM): 24% and 13%; target mRNA inhibition (A431, 0.556 µM): 46% and 35%; target mRNA inhibition (A431, 1.667 µM): 67% and 52%; target mRNA inhibition (A431, 5 µM): 77% and 71%
CTTGTTGAGCTATCCA (sugars k3 d10 k3, PS) | 63% | –
GACTTGAAAAGTGTTT (sugars k3 d10 k3, PS) | 14% | –
GAGATATCCACAGCAG (sugars k3 d10 k3, PS) | 49% | –
GAGTCTTTATAGTAAT (sugars kkddddddddkekekk, PS) | 0% | –
GATATCCACAGCAGCA (sugars k3 d10 k3, PS) | 10% | –
GATGTAGGGCATTTCT (sugars k3 d10 k3, PS) | 0% | –
GATTGTGCTGAGCTTG (sugars kkdddddddddkdkdk, PS) | 57% | target mRNA inhibition (A431, 0.185 µM): 0%; target mRNA inhibition (A431, 0.556 µM): 17%; target mRNA inhibition (A431, 1.667 µM): 48%; target mRNA inhibition (A431, 5 µM): 58%
GCATGAAGATTTCTGG (sugars k3 d10 k3, PS) | 62% and 66% and 60% | –
GCATGTAAATATAGCC (sugars k3 d10 k3, PS) | 11% | –
GCATTTCTGATGTGAC (sugars k3 d10 k3, PS) | 24% | –
GCTATTAGGAGTCTTT (sugars k3 d10 k3, PS) | – | target mRNA inhibition (A431, 0.125 µM): 68% and 67%; target mRNA inhibition (A431, 0.185 µM): 33% and 16% and 26%; target mRNA inhibition (A431, 0.556 µM): 50% and 47% and 44%; target mRNA inhibition (A431, 1.667 µM): 77% and 67% and 58%; target mRNA inhibition (NCI-H460, 0.037 µM): 69.9%
GCTGTGAAACTCTCTA (sugars kdddddddddkekeke, PS) | 2% | –
GGAGATATCCACAGCA (sugars k3 d10 k3, PS) | 0% | –
GGAGTCTTTATAGTAA (sugars k3 d9 k3 e1, PS) | 41% | –
GGAGTCTTTATAGTAA (sugars k3 d10 k3, PS) | 38% | –
GGAGTCTTTATAGTAA (sugars kkdddddddddkdkdk, PS) | 29% | –
GGAGTCTTTATAGTAA (sugars kkdddddddddkekek, PS) | 21% | –
GGCATTTCTGATGTGA (sugars k3 d10 k3, PS) | 8% | –
GGGCATTTCTGATGTG (sugars k3 d10 k3, PS) | 7% | –
GGTGTAACATAGGTTA (sugars kkddddddddkekekk, PS) | 54% | target mRNA inhibition (A431, 0.185 µM): 0%; target mRNA inhibition (A431, 0.556 µM): 2%; target mRNA inhibition (A431, 1.667 µM): 40%; target mRNA inhibition (A431, 5 µM): 58%
GTAAATATAGCCCCAA (sugars k3 d10 k3, PS) | 29% | –
GTACTAGTATGCCTTA (sugars k3 d10 k3, PS) | 50% | –

Sequence | target mRNA inhibition (A431, 2 µM) | also measured
GTAGTTTCACATAGCA (sugars k3 d10 k3, PS) | 46% | –
GTATTAACACAGAAGT (sugars k3 d10 k3, PS) | 0% | –
GTCCAGTGATACTTTC (sugars kkddddddddddkeke, PS) | 39% | –
GTGAAACTCTCTATGA (sugars k3 d10 k3, PS) | 28% | –
GTGTGACTCAGTTAAA (sugars kkddddddddkekekk, PS) | 38% | –
GTGTTTATGCAATGTT (sugars k3 d9 k3 e1, PS) | 59% | target mRNA inhibition (A431, 0.185 µM): 19%; target mRNA inhibition (A431, 0.556 µM): 63%; target mRNA inhibition (A431, 1.667 µM): 79%; target mRNA inhibition (A431, 5 µM): 88%
GTGTTTATGCAATGTT (sugars kkddddddddkekekk, PS) | 9% | –
GTGTTTATGCAATGTT (sugars kkkdddddddddkeke, PS) | 66% | target mRNA inhibition (A431, 0.185 µM): 30%; target mRNA inhibition (A431, 0.556 µM): 55%; target mRNA inhibition (A431, 1.667 µM): 80%; target mRNA inhibition (A431, 5 µM): 85%
GTTCTGTCTATTCATA (sugars k3 d10 k3, PS) | 31% | –
GTTGAGCTATCCAAAC (sugars k3 d10 k3, PS) | 2% | –
GTTTAAAAAAAAAATT (sugars k3 d10 k3, PS) | 2% | –
GTTTATGCAATGTTAA (sugars kdddddddddkekeke, PS) | 31% | –
GTTTCACATAGCAATT (sugars k3 d10 k3, PS) | 29% | –
TAAGGTAAAAGCTAAC (sugars k3 d10 k3, PS) | 20% | –
TAATAGTTTCCATTGC (sugars k3 d10 k3, PS) | 53% | –
TAATTAATCCATTTAT (sugars k3 d10 k3, PS) | 0% | –
TAGTGATTAGGTCAAA (sugars k3 d9 k3 e1, PS) | 43% | –
TAGTGATTAGGTCAAA (sugars kkddddddddddkeke, PS) | 34% | –
TCCAGTATTAACACAG (sugars k3 d10 k3, PS) | 34% | –
TCCAGTGATACTTTCA (sugars kkdddddddddkdkdk, PS) | 35% | –
TCCAGTGATACTTTCA (sugars kkkddddddddkekek, PS) | 48% | –
